Measured values published in patent publication US9480677B2, “Enantiomers of spiro-oxindole compounds and their uses as therapeutic agents” (Xenon Pharmaceuticals Inc., priority 2009, dated 2016).

Legend:
[1] = molecular target: T1, hNav1.7 (Homo sapiens, UniProt Q15858); assay: Electrophysiological assay, whole cell voltage clamp; assay type: cell-based; set-up: expressed in transfected cells; host or cells: HEK293; conditions: for Ki: affinity for the inactivated state of hNav1.7; for Kd: affinity for the rested/closed state of hNav1.7, holding potential −120 mV, read-out: Kr
Method: HEK293 Cells expressing hNav1.7 were cultured in DMEM growth media (Gibco) with 0.5 mg/mL G418, +/−1% PSG, and 10% heat-inactivated fetal bovine serum at 37° C. and 5% CO2. For electrophysiological recordings, cells were plated on 10 mm dishes.
Whole cell recordings were examined by established methods of whole cell voltage clamp (Bean et al., op. cit.) using an Axopatch 200B amplifier and Clampex software (Axon Instruments, Union City, Calif.). All experiments were performed at ambient temperature. Electrodes were fire-polished to resistances of 2-4 Mohms Voltage errors and capacitance artifacts were minimized by series resistance compensation and capacitance compensation, respectively. Data were acquired at 40 kHz and filtered at 5 kHz. The external (bath) solution consisted of: NaCl (140 mM), KCl (5 mM), CaCl2 (2 mM), MgCl2 (1 mM), HEPES (10 mM) at pH 7.4. The internal (pipette) solution consisted of (in mM): NaCl (5), CaCl2 (0.1), MgCl2 (2), CsCl (10), CsF (120), HEPES (10), EGTA (10), at pH 7.2.
To estimate the steady-state affinity of compounds for the resting and inactivated state of the channel (Kr and Ki, respectively), 12.5 ms test pulses to depolarizing voltages from −60 to +90 m V from a holding potential of −120 m V was used to construct current-voltage relationships (1-V curves). A voltage near the peak of the IV-curve (−30 to 0 m V) was used as the test pulse throughout the remainder of the experiment. Steady-state inactivation (availability) curves were then constructed by measuring the current activated during a 8.75 ms test pulse following 1 second conditioning pulses to potentials ranging from −120 to −10 mV.
The steady-state voltage-dependence of binding of a compound to a voltage-gated sodium channel was determined by measuring the blockage of the ionic current at two holding potentials. Binding to rested-state channels was determined by using a holding potential of −120 mV, so that maximal availability was achieved. Binding to inactivated-state channels was evaluated at a holding potential such that only about 10% of the channels were available to open. The membrane potential was held at this voltage for at least 10 seconds so that drug binding could equilibrate.
The apparent dissociation constant at each voltage was calculated with the equation:
[formula] where Kd is the dissociation constant (either Kr or Ki), and [Drug] is the concentration of the test compound.

[2] = molecular target: T1, hNav1.7; assay: cell-based
[3] = test system: chronic constriction injury neuropathic pain; assay: Neuropathic pain model; chronic constriction injury (CCI); assay type: in vivo; conditions: topical ointment containing 2% (w/v)
[4] = Plasma concentration after oral dosing in the CFA model; assay type: in vivo, rats
Method: Each enantiomer was dosed at 10, 30, 100 or 200 mg/Kg. The plasma concentration achieved with each dose was also determined and the reversal of pain response (as the % increase from baseline threshold) is plotted as a function of plasma concentration.

[5] = test system: Nav1.8 (SK-N-BE2C); assay type: cell-based, human
[6] = test system: Nav1.2 and Nav1.7 (PC12); assay type: cell-based, rat
[7] = test system: Nav1.4 and 1.5 (L6); assay type: cell-based, rat
[8] = molecular target: Nav1.4 (CHO-K1) (Cricetulus griseus, UniProt A0A9J7H6F9); assay type: cell-based, Chinese Hamster
[9] = test system: Nav1.9 and Nav1.7 (SH-SY5Y); assay type: cell-based, Human

T1 sequence (Q15858 whole entry): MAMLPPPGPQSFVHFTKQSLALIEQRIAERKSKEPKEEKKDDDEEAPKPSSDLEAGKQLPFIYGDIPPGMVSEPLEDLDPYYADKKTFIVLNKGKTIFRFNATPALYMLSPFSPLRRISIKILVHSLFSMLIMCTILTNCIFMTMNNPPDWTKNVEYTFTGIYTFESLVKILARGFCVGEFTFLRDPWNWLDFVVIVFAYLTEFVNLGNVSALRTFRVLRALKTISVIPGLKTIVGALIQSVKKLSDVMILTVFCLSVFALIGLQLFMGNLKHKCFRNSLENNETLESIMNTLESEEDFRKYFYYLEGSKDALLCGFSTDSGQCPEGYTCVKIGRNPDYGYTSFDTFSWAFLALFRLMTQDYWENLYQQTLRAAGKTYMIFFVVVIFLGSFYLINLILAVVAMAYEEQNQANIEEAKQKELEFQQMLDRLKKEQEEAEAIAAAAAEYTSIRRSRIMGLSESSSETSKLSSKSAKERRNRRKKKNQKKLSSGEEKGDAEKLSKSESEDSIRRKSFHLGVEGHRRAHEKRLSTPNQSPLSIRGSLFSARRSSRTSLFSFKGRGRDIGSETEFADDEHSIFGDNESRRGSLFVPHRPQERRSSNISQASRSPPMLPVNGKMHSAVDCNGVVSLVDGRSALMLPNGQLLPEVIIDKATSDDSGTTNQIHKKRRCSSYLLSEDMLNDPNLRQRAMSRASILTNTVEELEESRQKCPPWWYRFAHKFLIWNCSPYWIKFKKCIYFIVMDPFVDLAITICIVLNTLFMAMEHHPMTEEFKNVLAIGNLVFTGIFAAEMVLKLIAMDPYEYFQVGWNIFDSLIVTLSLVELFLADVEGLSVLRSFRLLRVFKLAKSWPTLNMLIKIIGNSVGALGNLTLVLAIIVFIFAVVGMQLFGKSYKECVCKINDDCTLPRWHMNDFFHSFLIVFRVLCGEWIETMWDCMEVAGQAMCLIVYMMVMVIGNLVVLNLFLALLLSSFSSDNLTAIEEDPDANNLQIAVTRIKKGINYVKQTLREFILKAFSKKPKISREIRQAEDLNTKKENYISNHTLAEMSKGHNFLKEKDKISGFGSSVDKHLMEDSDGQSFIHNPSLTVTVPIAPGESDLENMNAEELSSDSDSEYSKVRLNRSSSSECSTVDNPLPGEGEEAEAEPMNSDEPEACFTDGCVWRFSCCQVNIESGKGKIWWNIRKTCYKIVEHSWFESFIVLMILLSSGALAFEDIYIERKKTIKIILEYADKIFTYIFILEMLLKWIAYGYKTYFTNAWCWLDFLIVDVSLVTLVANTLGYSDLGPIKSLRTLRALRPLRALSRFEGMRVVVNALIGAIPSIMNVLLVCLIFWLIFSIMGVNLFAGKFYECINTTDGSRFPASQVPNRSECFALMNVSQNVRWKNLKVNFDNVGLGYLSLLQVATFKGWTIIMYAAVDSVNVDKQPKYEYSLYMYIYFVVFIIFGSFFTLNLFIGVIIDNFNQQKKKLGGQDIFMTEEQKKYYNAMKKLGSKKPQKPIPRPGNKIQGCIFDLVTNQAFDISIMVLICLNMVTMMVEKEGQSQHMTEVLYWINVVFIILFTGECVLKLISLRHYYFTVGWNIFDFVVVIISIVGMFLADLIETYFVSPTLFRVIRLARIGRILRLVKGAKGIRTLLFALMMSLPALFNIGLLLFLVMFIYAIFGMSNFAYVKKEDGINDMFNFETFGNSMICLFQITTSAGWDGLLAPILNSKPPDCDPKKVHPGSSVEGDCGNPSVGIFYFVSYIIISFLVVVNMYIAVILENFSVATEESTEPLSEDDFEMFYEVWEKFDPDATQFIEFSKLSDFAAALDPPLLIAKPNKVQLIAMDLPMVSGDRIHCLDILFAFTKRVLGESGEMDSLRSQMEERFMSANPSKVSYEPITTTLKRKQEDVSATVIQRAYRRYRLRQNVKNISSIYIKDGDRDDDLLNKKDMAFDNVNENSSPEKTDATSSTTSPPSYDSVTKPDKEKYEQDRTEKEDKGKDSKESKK
Nav1.4 (CHO-K1), sequence (A0A9J7H6F9 1-1930): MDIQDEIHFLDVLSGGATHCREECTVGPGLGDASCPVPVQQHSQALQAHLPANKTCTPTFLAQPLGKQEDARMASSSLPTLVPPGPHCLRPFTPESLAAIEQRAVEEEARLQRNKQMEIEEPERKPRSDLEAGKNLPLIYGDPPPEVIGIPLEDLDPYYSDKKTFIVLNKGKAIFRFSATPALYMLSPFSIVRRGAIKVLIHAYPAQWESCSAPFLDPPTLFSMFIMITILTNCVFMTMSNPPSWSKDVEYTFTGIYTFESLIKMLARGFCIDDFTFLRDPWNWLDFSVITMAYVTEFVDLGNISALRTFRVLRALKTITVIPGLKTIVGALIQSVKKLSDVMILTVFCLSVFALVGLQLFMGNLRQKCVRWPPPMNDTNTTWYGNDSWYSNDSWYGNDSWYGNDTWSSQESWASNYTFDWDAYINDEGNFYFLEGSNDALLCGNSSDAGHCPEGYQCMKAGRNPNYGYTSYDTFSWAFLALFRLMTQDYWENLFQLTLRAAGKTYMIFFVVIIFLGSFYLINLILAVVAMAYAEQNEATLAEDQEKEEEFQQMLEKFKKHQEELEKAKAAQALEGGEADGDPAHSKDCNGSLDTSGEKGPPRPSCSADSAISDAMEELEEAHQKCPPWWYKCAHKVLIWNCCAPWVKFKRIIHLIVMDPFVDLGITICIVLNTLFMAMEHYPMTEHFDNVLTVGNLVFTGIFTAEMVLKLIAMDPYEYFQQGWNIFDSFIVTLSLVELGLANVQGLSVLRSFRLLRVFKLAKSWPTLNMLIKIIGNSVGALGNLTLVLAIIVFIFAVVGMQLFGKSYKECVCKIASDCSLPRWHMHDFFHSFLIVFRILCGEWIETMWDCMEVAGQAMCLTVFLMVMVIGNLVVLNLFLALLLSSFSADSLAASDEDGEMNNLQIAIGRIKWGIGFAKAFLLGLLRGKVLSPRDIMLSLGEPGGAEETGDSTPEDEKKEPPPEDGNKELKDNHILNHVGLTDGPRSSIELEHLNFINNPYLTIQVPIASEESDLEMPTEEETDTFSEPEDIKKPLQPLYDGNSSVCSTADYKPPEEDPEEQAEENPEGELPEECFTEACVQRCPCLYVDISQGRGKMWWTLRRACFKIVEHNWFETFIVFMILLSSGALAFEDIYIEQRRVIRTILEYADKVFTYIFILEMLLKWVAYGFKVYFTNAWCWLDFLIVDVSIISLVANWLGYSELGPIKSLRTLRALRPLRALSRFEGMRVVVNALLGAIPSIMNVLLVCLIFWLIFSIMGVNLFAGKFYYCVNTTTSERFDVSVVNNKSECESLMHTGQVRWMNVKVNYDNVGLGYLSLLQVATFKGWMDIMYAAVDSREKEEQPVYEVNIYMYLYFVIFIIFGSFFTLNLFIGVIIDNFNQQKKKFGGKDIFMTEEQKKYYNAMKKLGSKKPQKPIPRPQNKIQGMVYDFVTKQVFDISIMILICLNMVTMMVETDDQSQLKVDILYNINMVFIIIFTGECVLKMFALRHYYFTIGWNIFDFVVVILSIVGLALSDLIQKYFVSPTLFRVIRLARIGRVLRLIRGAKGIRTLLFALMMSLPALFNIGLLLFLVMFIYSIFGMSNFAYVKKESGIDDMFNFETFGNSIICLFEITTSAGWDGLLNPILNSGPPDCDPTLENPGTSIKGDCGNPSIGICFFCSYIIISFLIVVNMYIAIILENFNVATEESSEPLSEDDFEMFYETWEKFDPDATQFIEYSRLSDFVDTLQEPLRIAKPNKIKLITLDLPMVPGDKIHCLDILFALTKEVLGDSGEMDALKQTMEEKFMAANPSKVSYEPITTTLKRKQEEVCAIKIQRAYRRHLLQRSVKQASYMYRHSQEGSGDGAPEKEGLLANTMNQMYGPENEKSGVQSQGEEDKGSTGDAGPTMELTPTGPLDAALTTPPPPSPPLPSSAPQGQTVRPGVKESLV

SMILES	Ki [1]	Kd [1]	IC50 [2]	reversal of pain responses, percent increase from baseline [3]	excess of the inactive (R)-enantiomer resulting from use of the racemate ([4]; oral dosing)	plasma concentration at an equivalent dose level ([4]; oral dosing 10, 30, 100 or 200 mg/Kg, compared with the (S)-enantiomer)	block of [14C] guanidine influx by TTX [5]	block of [14C] guanidine influx by TTX [6]	block of [14C] guanidine influx by TTX [7]	block of [14C] guanidine influx by TTX [8]	block of [14C] guanidine influx by TTX [9]
O=C1N(Cc2ccc(C(F)(F)F)o2)c2ccccc2C12COc1cc3c(cc12)OCO3 (racemic) [(I), 1′-{[5-(trifluoromethyl)furan-2-yl]methyl}spiro[furo[2,3-f][1,3]benzodioxole-7,3′-indol]-2′(1′H)-one]	142 nM	> 10000 nM	7 nM								
O=C1N(Cc2ccc(C(F)(F)F)o2)c2ccccc2[C@@]12COc1cc3c(cc12)OCO3 [(I-R), (R)-1′-{[5-(trifluoromethyl)furan-2-yl]methyl}spiro[furo[2,3-f][1,3]benzodioxole-7,3′-indol]-2′(1H)-one]	869 nM	> 10000 nM	4200 nM	no significant increase from baseline	~10 fold	much higher plasma concentration					
NC1=N[C@H](O)[C@H]2[C@H]3O[C@]4(O)O[C@@H]([C@@H](O)[C@@]2(N1)[C@@H]4O)[C@]3(O)CO [TTX, tetrodotoxin]							TTX partially blocked influx	guanidine influx was completely	partially blocked by TTX at 100 nM	completely blocked using TTX.	background was partially blocked
